Source: paper PMC6925341 (SLAS discovery : advancing life sciences R & D, 2019)
Like-named read-outs stand apart in the source and are kept apart here.

Tests used:
[1] = system: 293FT cells; assay: cells; format: cell-based, Human; details: for IC50: read-out: 293FT Cell Viability IC50; for cell viability IC50: control validation, known inhibitor
[2] = system: HPV16-PsV; assay: organism not typed; format: cell-based, HPV-16; details: for IC50: read-out: HPV Infection IC50; for reduction of HPV-16PsV infection, fold change compared with the control of cells only: 30 μM, secondary stock
[3] = system: SV40 promoter; assay: SV40 promoter transfection in 293FT cells; format: cell-based; details: 30.0 μM, vs SV40 with no drug; data not shown
[4] = in vitro; format: cell-based, Human; details: human

Row | Compound | IC50 ([1]; Homo sapiens) | IC50 ([2]; 72 h) | further results
1 | O=c1[nH]cc(F)c(=O)[nH]1 [Fluorouracil] | 13 µM | 1 µM | –
2 | Carrageenan | – | – | cell viability IC50 [1]: ≥ 2 µg/mL
3 | O=C1[O][Pt]2([NH][C@@H]3CCCC[C@H]3[NH]2)[O]C1=O [Oxaliplatin] | – | – | IC50 [1]: 8 µM; IC50 [2]: 1 µM
4 | Cc1nccn1CC1CCc2c(c3ccccc3n2C)C1=O (centres unmarked) [Ondansetron] | – | 5 µM | –
5 | Bleomycin | – | – | IC50 [1]: 2 µM; IC50 [2]: < 0.007 µM
6 | N=C(N)c1ccc(OCCCCCOc2ccc(C(=N)N)cc2)cc1 [Pentamidine] | 9 µM | 2 µM | effect on SV40 promoter activity [3]: did not significantly affect; cellular cytotoxicity ([1]; human): < 10.0%; viability at 30 µM [4]: > 95%; reduction of HPV-16PsV infection, fold change compared with the control of cells only [2]: twofold
7 | O=c1[nH]c(=O)n([C@H]2C[C@H](O)[C@@H](CO)O2)cc1F [Floxuridine] | – | < 0.007 µM | –
8 | N=c1ccn2c(n1)O[C@H]1[C@H](O)[C@@H](CO)O[C@H]12 [Ancitabine] | 5 µM | < 0.007 µM | –
9 | COc1cc(NS(C)(=O)=O)ccc1Nc1c2ccccc2nc2ccccc12 [Amsacrine] | 1 µM | 0.01 µM | –
10 | CNCCC=C1c2ccccc2CCc2ccccc21 [Nortriptyline] | > 15 µM | 6 µM | –
11 | Cc1cc(C2CCCCC2)n(O)c(=O)c1 [Ciclopirox] | 8 µM | 2 µM | –
12 | Nc1nc(Cl)nc2c1ncn2[C@H]1C[C@H](O)[C@@H](CO)O1 [Cladribine] | 4 µM | – | –
13 | O=c1[nH]c(=O)n([C@H]2C[C@H](O)[C@@H](CO)O2)cc1F [Fluorodeoxyuridine] | – | – | IC50 [1]: 13 µM; IC50 [2]: 4 µM
14 | CC[C@@]1(O)C(=O)OCc2c1cc1n(c2=O)Cc2cc3c([N+](=O)[O-])cccc3nc2-1 [Rubitecan] | – | 0.8 µM | –
15 | heparin | – | – | cell viability IC50 [1]: 83.0 µg/mL; inhibition of HPV 16-PsV infection IC50 ([2]; control validation, known inhibitor): 24 µg/mL
16 | O=C1C=C2C=C[C@@H]3C[C@@]2(O1)[C@H]1CCCCN31 [Securinine] | 4 µM | 2 µM | effect on SV40 promoter activity [3]: did not significantly affect; cellular cytotoxicity ([1]; lead drugs, triplicate): < 10.0%; viability at 30 µM [4]: > 95%; reduction of HPV-16PsV infection, fold change compared with the control of cells only [2]: 1.5 fold
17 | C[C@H]1O[C@@H](n2cc(F)c(=O)[nH]c2=O)[C@H](O)[C@@H]1O [Doxifluridine] | 16 µM | 5 µM | –
18 | Nc1nc(Cl)nc2c1ncn2[C@@H]1O[C@H](CO)[C@@H](O)[C@@H]1F [Clofarabine] | 2 µM | – | –
19 | COc1cc([C@@H]2c3cc4c(cc3[C@@H](O[C@@H]3O[C@@H]5CO[C@@H](C)O[C@H]5[C@H](O)[C@H]3O)[C@H]3COC(=O)[C@H]23)OCO4)cc(OC)c1O [Etoposide] | 1 µM | 0.01 µM | –
20 | O=[N+]([O-])C(Br)(CO)CO [Bronopol] | 7 µM | 3 µM | –
21 | Cc1cc2nc3ccc(N(C)C)cc3[s+]c2cc1N [Tolonium chloride] | 4 µM | 2 µM | –
